Assay results: PMC9145622, “Synthesis, Biological Evaluation, and Docking Studies of Antagonistic Hydroxylated Arecaidine Esters Targeting mAChRs” (Molecules, 2022)
Like-named read-outs stand apart in the source and are kept apart here.

Assays:
[1] = High-throughput HPLC-logD; format: physicochemical; details: octadecyl-poly(vinyl alcohol) column, methanol / 0.01 M sodium phosphate buffer pH 7.4
From the text: For this, logD values were estimated in an HPLC-based high-throughput assay employing an octadecyl-poly(vinyl alcohol) stationary phase. The absence of silanol groups renders this type of column especially suited in case of analytes with hydrogen bond donor capabilities as it avoids overestimating their lipophilicity.
Briefly, a mixture of toluene (≥98%, Sigma-Aldrich, St. Louis, MO, USA) and triphenylene (≥99.9%, Carl Roth, Karlsruhe, Germany) was used as internal standard. Samples were dissolved in the internal standard mixture. Using gradient elution, the injection volume was set to 7 µL, the flow rate was 1.5 mL/min, and the mobile phase consisted of a mixture of methanol and 0.01 M sodium phosphate buffer pH 7.4. The HPLC-logD values were derived from the measured retention times following the previously published equation [21, 40].

hM1 [2] = target: T1, hM1 (Homo sapiens, UniProt P11229); test: Competitive [3H]NMS radioligand binding, CHO-K1 membranes expressing hM1; details: for Displacement ± SD hM1: displacement of [3H]NMS, single ligand concentration corresponding to a Ki value of 1 µM (Cheng-Prusoff)
T1 sequence (P11229 1-460): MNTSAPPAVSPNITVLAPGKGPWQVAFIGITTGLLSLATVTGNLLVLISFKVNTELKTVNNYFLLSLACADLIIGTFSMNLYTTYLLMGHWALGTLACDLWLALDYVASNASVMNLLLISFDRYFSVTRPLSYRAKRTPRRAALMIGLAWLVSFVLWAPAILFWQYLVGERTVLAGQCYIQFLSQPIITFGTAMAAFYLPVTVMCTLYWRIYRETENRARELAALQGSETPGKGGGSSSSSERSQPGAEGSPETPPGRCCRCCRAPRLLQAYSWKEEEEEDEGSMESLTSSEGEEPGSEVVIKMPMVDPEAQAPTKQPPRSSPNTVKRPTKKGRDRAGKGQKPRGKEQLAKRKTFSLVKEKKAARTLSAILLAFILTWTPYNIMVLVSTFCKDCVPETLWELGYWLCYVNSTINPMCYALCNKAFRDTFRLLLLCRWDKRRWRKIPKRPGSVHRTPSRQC
From the text: (§1) The arecaidine esters’ affinities towards the human mAChR subtypes hM1–hM5 were studied in a competitive radioligand binding assay using CHO-K1 cell membrane homogenates expressing a single mAChR subtype and tritiated N-methyl scopolamine methyl chloride ([^3H]NMS). To speed up our affinity testing regime, we subjected all test substances to preliminary single-concentration displacement assays, as described previously. Compounds with percent displacements below 75% at any of the subtypes were dropped from further investigations (Table S1). For compounds meeting the percent displacement threshold (8c, 10b, 10c, 17b, 18b, and 25), inhibition constants (Ki) were assessed in dose-dependent displacement experiments (Table 2).
(§2) Cell membranes bearing hM1-hM5 receptors were prepared as described previously. Briefly, stably transfected CHO-K1 cells were grown to at least 80% confluency in T175 flasks, washed with ice-cold DPBS, and scraped into a mixture of ice-cold 2 mL 10 mM Tris-HCl, 1 mM EDTA-buffer, pH 7.4 and 200 µL protease inhibitor. A cell homogenate was prepared by passing the cell suspension through a G29 needle. The cell homogenates corresponding to two T175 flasks were combined and subsequently centrifuged (10 min, 1000× g, 4 °C). Ultracentrifugation of the supernatant (1 h, 100,000× g, 4 °C) yielded a membrane pellet, which was suspended in 250 µL 50 mM Tris-HCl buffer, pH 7.4 and stored at −80 °C.
(§3) Then, 5 µL of test compound in DMSO, 50 µL of [^3H]NMS in assay buffer, and 445 µL of membrane suspension in assay buffer were incubated for 90 min at 23 °C in PP tubes. Maximum binding was measured by using 5 µL DMSO, and nonspecific binding was measured by using 5 µL of 1 µM scopolamine in DMSO. The effective concentration of [^3H]NMS was 0.2 nM, 0.3 nM, 0.8 nM, 0.2 nM, and 1 nM for M1–M5 and 4–30 µg membrane were used per tube. The membrane-bound radioactivity was recovered by filtration through Whatman™ GF/B glass fiber filters presoaked in aqueous 0.1% PEI using an M-36 tygon tubed cell harvester (Brandel®, Gaithersburg, MD, USA). Membranes were washed three times with ice-cold washing buffer (50 mM Tris, pH 7.4) before being dried, transferred to 2 mL scintillation cocktail (UltimaGold™, high flashpoint LSC cocktail, PerkinElmer, Waltham, MA, USA) and counted in a β-counter (Hidex TDCR liquid scintillation counter in CPM mode). IC50 values were calculated by a variable slope logistic regression using at least five distinct concentrations of test compounds, pipetted in triplicates.

hM2 [3] = target: T2, hM2 (Homo sapiens, UniProt P08172); test: Competitive [3H]NMS radioligand binding, CHO-K1 membranes expressing hM2; details: for Displacement ± SD hM2: displacement of [3H]NMS, single ligand concentration corresponding to a Ki value of 1 µM (Cheng-Prusoff)
T2 sequence (P08172 1-466): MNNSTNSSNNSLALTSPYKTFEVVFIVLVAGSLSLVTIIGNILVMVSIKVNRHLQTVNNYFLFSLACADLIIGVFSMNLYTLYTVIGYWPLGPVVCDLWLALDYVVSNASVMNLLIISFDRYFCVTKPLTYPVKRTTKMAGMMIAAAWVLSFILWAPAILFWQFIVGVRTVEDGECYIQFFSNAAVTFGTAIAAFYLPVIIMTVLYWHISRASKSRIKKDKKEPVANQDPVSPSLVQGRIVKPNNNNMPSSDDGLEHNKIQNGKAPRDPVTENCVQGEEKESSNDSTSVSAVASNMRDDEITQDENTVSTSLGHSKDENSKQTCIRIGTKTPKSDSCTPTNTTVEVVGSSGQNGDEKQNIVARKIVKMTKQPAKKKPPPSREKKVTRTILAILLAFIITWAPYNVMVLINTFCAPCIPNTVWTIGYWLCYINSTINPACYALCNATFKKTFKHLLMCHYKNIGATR
From the text: as §1, §2, §3

hM3 [4] = target: T3, hM3 (Homo sapiens, UniProt P20309); test: Competitive [3H]NMS radioligand binding, CHO-K1 membranes expressing hM3; details: for Displacement ± SD hM3: displacement of [3H]NMS, single ligand concentration corresponding to a Ki value of 1 µM (Cheng-Prusoff)
T3 sequence (P20309 whole entry): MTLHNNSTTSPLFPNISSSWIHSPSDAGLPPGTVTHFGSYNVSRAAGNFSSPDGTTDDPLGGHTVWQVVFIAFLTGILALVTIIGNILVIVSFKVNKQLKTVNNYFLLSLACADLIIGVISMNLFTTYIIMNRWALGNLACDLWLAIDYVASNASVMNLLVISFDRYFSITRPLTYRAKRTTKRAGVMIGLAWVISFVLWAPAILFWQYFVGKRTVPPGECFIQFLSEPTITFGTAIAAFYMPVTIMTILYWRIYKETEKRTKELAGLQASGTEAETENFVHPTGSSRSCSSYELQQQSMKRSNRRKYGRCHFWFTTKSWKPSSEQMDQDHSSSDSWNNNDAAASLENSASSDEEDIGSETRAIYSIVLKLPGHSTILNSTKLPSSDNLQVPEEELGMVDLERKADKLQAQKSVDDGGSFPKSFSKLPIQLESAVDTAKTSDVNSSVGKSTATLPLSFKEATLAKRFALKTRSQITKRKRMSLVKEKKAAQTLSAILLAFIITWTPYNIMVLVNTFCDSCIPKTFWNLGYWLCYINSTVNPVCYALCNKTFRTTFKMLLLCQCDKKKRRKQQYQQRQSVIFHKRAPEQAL
From the text: as §1, §2, §3

hM4 [5] = target: T4, hM4 (Homo sapiens, UniProt P08173); test: Competitive [3H]NMS radioligand binding, CHO-K1 membranes expressing hM4; details: for Displacement ± SD hM4: displacement of [3H]NMS, single ligand concentration corresponding to a Ki value of 1 µM (Cheng-Prusoff)
T4 sequence (P08173 1-479): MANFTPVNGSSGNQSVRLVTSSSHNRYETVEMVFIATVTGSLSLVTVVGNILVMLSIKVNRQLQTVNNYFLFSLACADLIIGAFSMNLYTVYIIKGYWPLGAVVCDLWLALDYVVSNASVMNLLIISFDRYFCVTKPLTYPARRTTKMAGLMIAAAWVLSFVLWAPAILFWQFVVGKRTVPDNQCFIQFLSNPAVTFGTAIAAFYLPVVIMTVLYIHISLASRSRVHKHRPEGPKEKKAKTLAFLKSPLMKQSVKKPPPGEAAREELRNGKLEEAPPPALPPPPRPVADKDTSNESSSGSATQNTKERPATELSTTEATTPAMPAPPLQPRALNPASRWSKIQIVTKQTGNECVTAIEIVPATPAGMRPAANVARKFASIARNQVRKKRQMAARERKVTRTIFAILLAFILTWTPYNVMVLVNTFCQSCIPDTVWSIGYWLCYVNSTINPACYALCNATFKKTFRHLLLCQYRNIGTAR
From the text: as §1, §2, §3

hM5 [6] = target: T5, hM5 (Homo sapiens, UniProt P08912); test: Competitive [3H]NMS radioligand binding, CHO-K1 membranes expressing hM5; details: for Displacement ± SD hM5: displacement of [3H]NMS, single ligand concentration corresponding to a Ki value of 1 µM (Cheng-Prusoff)
T5 sequence (P08912 1-532): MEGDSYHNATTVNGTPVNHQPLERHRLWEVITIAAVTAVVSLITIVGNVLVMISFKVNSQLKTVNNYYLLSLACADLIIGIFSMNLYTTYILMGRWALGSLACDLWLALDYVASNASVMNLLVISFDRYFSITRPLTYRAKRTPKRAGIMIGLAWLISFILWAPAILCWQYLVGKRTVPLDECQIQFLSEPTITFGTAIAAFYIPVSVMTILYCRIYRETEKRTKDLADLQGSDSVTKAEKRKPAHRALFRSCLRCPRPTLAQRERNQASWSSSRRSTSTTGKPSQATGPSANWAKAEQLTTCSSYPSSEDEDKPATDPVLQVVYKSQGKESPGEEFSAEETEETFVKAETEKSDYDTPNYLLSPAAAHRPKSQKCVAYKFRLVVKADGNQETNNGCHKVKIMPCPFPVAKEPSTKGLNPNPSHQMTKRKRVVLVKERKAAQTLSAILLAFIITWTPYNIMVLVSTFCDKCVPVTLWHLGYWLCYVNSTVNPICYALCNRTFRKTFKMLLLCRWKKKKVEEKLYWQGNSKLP
From the text: as §1, §2, §3

[7] = design: method as in Ozenil et al. [10]; details: ref Ozenil et al. [10]; cited from earlier work
hM1 [8] = target: T1, hM1; design: method as in Ozenil et al. [10]; details: [3H]NMS; ref Ozenil et al. [10]; read-out: Affinity: Ki ± SD hM1; cited from earlier work
hM2 [9] = target: T2, hM2; design: method as in Ozenil et al. [10]; details: [3H]NMS; ref Ozenil et al. [10]; read-out: Affinity: Ki ± SD hM2; cited from earlier work
hM3 [10] = target: T3, hM3; design: method as in Ozenil et al. [10]; details: [3H]NMS; ref Ozenil et al. [10]; read-out: Affinity: Ki ± SD hM3; cited from earlier work
hM4 [11] = target: T4, hM4; design: method as in Ozenil et al. [10]; details: [3H]NMS; ref Ozenil et al. [10]; read-out: Affinity: Ki ± SD hM4; cited from earlier work
hM5 [12] = target: T5, hM5; design: method as in Ozenil et al. [10]; details: [3H]NMS; ref Ozenil et al. [10]; read-out: Affinity: Ki ± SD hM5; cited from earlier work

CN1CCC=C(C(=O)OCc2ccccc2CO)C1 [Compound 8a, 2-(hydroxymethyl)benzyl 1-methyl-1,2,5,6-tetrahydropyridine-3-carboxylate]
chromatographic logD [1]: 0.79 ± 0.01 | Displacement ± SD hM1 (hM1 [2]): 66 ± 5% | Displacement ± SD hM2 (hM2 [3]): 43 ± 2% | Displacement ± SD hM3 (hM3 [4]): 72 ± 4% | Displacement ± SD hM4 (hM4 [5]): 56 ± 9% | Displacement ± SD hM5 (hM5 [6]): 72 ± 3%

CN1CCC=C(C(=O)Oc2ccccc2-c2ccccc2O)C1 [Compound 27, 2′-hydroxy-[1,1′-biphenyl]-2-yl 1-methyl-1,2,5,6-tetrahydropyridine-3-carboxylate]
chromatographic logD [1]: 2.69 ± 0.01 | Displacement ± SD hM1 (hM1 [2]): 37 ± 6% | Displacement ± SD hM2 (hM2 [3]): 34 ± 7% | Displacement ± SD hM3 (hM3 [4]): 51 ± 9% | Displacement ± SD hM4 (hM4 [5]): 46 ± 3% | Displacement ± SD hM5 (hM5 [6]): 65 ± 11% | melting point: 142 to 144 °C

CN1CCC=C(C(=O)OCc2cccc(CO)c2)C1 [Compound 8b, 3-(hydroxymethyl)benzyl 1-methyl-1,2,5,6-tetrahydropyridine-3-carboxylate]
chromatographic logD [1]: 0.87 ± 0.01 | Displacement ± SD hM1 (hM1 [2]): 31 ± 3% | Displacement ± SD hM2 (hM2 [3]): 23 ± 4% | Displacement ± SD hM3 (hM3 [4]): 34 ± 4% | Displacement ± SD hM4 (hM4 [5]): 22 ± 1% | Displacement ± SD hM5 (hM5 [6]): 29 ± 6%

CN1CCC=C(C(=O)OC(c2ccccc2)c2cccc(CO)c2)C1 (centres unmarked) [Compound 10b, (3-(hydroxymethyl)phenyl)(phenyl)methyl 1-methyl-1,2,5,6-tetrahydropyridine-3-carboxylate]
chromatographic logD [1]: 2.6 ± 0.1 | Ki (hM1 [2]; [3H]NMS, CHO-hM1 cell membrane preparations, read-out: Affinity: Ki ± SD hM1): 0.0125 ± 0.0008 µM | Ki (hM2 [3]; [3H]NMS, CHO-hM2 cell membrane preparations, >1000 values from two independent (single-concentration) experiments, read-out: Affinity: Ki ± SD hM2): 0.198 ± 0.035 µM | Ki (hM3 [4]; [3H]NMS, CHO-hM3 cell membrane preparations, read-out: Affinity: Ki ± SD hM3): 0.0704 ± 0.0018 µM | Ki (hM4 [5]; [3H]NMS, CHO-hM4 cell membrane preparations, read-out: Affinity: Ki ± SD hM4): 0.0323 ± 0.0038 µM | Ki (hM5 [6]; [3H]NMS, CHO-hM5 cell membrane preparations, read-out: Affinity: Ki ± SD hM5): 0.0491 ± 0.0085 µM

CN1CCC=C(C(=O)OC(c2ccccc2)c2ccccc2)C1 [DPMA, benzhydryl 1-methyl-1,2,5,6-tetrahydropyridine-3-carboxylate]
x-Fold Selectivity for hM1 vs. hM2 (hM1 [2]; ratio of the Ki values hM2/hM1): 35.5 x-fold | x-Fold Selectivity for hM1 vs. hM3 (hM1 [2]; ratio of the Ki values hM3/hM1): 18.1 x-fold | x-Fold Selectivity for hM1 vs. hM4 (hM1 [2]; ratio of the Ki values hM4/hM1): 5.2 x-fold | x-Fold Selectivity for hM1 vs. hM5 (hM1 [2]; ratio of the Ki values hM5/hM1): 4.5 x-fold | HPLC-logD [7]: 3.32 ± 0.04 ^2 | Ki (hM1 [8]): 0.0031 ± 0.0005 µM | Ki (hM2 [9]): 0.11 ± 0.039 µM | Ki (hM3 [10]): 0.056 ± 0.022 µM | Ki (hM4 [11]): 0.016 ± 0.004 µM | Ki (hM5 [12]): 0.014 ± 0.001 µM

CN1CCC=C(C(=O)OC(CO)c2ccccc2)C1 (centres unmarked) [Compound 22, 2-hydroxy-1-phenylethyl 1-methyl-1,2,5,6-tetrahydropyridine-3-carboxylate]
chromatographic logD [1]: 0.92 ± 0.08 | Displacement ± SD hM1 (hM1 [2]): 61 ± 2% | Displacement ± SD hM2 (hM2 [3]): 28 ± 5% | Displacement ± SD hM3 (hM3 [4]): 33 ± 8% | Displacement ± SD hM4 (hM4 [5]): 51 ± 5% | Displacement ± SD hM5 (hM5 [6]): 72 ± 5%
